Source: PubChem BioAssay (NCI)
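How tested: cells in 96-well plates exposed to compound for 48 hours at five concentrations. GI50 marks 50% less growth. TGI denotes the concentration required for complete inhibition of growth.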

Assays:
Experiment in all cases: inhibition of tumour cell growth, NCI panel, 48 h
A498 renal = tested on: A498 renal
CCRF-CEM leukemia = tested on: CCRF-CEM leukemia
RXF 393 renal = tested on: RXF 393 renal
TK-10 renal = tested on: TK-10 renal
HOP-62 NSCLC = tested on: HOP-62 NSCLC
OVCAR-5 ovarian = tested on: OVCAR-5 ovarian
UO-31 renal = tested on: UO-31 renal
RPMI-8226 leukemia = tested on: RPMI-8226 leukemia
M14 melanoma = tested on: M14 melanoma

Structure (SMILES) | TGI (A498 renal) | TGI (CCRF-CEM leukemia) | TGI (RXF 393 renal) | TGI (TK-10 renal) | TGI (HOP-62 NSCLC) | TGI (OVCAR-5 ovarian) | TGI (UO-31 renal) | TGI (RPMI-8226 leukemia) | TGI (M14 melanoma) | GI50 (A498 renal) | GI50 (CCRF-CEM leukemia) | GI50 (RXF 393 renal) | GI50 (TK-10 renal) | GI50 (HOP-62 NSCLC) | GI50 (OVCAR-5 ovarian) | GI50 (UO-31 renal) | GI50 (RPMI-8226 leukemia) | GI50 (M14 melanoma)
CCOC(=O)c1ccc(Nc2nc3ccc(C(F)(F)F)cc3nc2C(=O)OCC)cc1 | > 100 µM | > 100 µM | > 100 µM | > 100 µM | > 100 µM | > 100 µM | > 100 µM | > 100 µM | > 100 µM | – | – | – | – | – | – | – | – | –
CCOC(=O)c1sc2ncnc(N)c2c1C | > 100 µM | > 100 µM | 71.3 µM | > 100 µM | > 100 µM | > 100 µM | > 100 µM | > 100 µM | > 100 µM | – | – | – | – | – | – | – | – | –
CC(C)/C(Cl)=N/OC(=O)Nc1ccc(OC(F)(F)F)cc1 | 32.9 µM | 5.08 µM | 18.3 µM | 29.3 µM | 31.7 µM | 29.2 µM | 23.8 µM | 8.97 µM | 12 µM | – | – | – | – | – | – | – | – | –
COc1ccc(-n2nc(C)c3c(Nc4ccc(NC(=O)Nc5ccc(Cl)c(C(F)(F)F)c5)cc4)ncnc32)cc1 | 5.67 µM | > 100 µM | 2.17 µM | 12.3 µM | 3.66 µM | 4.71 µM | 3.69 µM | 4.21 µM | 4.32 µM | 2.09 µM | 2.2 µM | 0.617 µM | 2.88 µM | 1.83 µM | 1.83 µM | 1.7 µM | 1.34 µM | 1.68 µM
CN(C)c1cccc2c1C(=O)C=CC21c2ccc(N(C)C)c3c(N(C)C)ccc(c23)C(c2ccccc2)C1c1ccccc1 (centres undefined) | 22 µM | 37.7 µM | 36.3 µM | 25.5 µM | 39.2 µM | 81.7 µM | 12.2 µM | 49.3 µM | 31.1 µM | – | – | – | – | – | – | – | – | –
CCOC(=O)NC(Nc1c(F)c(F)c(F)c(F)c1F)(C(F)(F)F)C(F)(F)F | > 100 µM | > 100 µM | > 100 µM | > 100 µM | > 100 µM | > 100 µM | > 100 µM | > 100 µM | > 100 µM | – | – | – | – | – | – | – | – | –
COc1ccc2c(c1)c(=O)c1c(NCCNCCO)ccc3c(=O)n(CCN(C)C)c(=O)n2c31 | 0.534 µM | > 100 µM | 0.266 µM | 4.53 µM | 2.4 µM | 3.05 µM | 1.61 µM | 1.15 µM | 1.86 µM | – | – | – | – | – | – | – | – | –
CC(C)[Si](OC/C(=C/COC(C)(C)C)[C@H]1CC=C(C(=O)c2ccccc2N2CN(C)C(=O)N(C)C2)C1)(C(C)C)C(C)C | 34.5 µM | > 100 µM | 17.5 µM | 24.2 µM | 31.5 µM | 28.7 µM | 23.1 µM | 15.6 µM | 27 µM | – | – | – | – | – | – | – | – | –
CN(C)c1ccc(Cc2cc3c(O)ccc(O)c3cc(Cc3ccc(N(C)C)cc3)c2=O)cc1 | > 75.5 µM | 7.36 µM | 31.9 µM | 33.6 µM | > 100 µM | > 70 µM | 27.7 µM | > 84.9 µM | 34.2 µM | – | – | – | – | – | – | – | – | –
O=C(OCC1OC(n2nc(Cn3nnc(-c4cccnc4)n3)n(-c3cccc4ccccc34)c2=S)C(OC(=O)c2ccccc2)C1OC(=O)c1ccccc1)c1ccccc1 (centres undefined) | > 100 µM | > 100 µM | > 100 µM | > 100 µM | > 100 µM | > 100 µM | > 100 µM | > 100 µM | > 100 µM | – | – | – | – | – | – | – | – | –
N#Cc1c(-c2ccccc2)c2c([nH]c1=O)-c1cc([N+](=O)[O-])ccc1CCC2 | 41 µM | 94.3 µM | 42.3 µM | > 100 µM | 70.2 µM | > 100 µM | > 100 µM | > 100 µM | 93.4 µM | – | – | – | – | – | – | – | – | –
COc1cc(/C=C2\CCC(C)/C(=C\c3cc(OC)c(OC)c(OC)c3)C2=O)cc(OC)c1OC (centres undefined) | 6.06 µM | 4.1 µM | 6.36 µM | 14 µM | 9.3 µM | 14.2 µM | > 100 µM | 0.901 µM | 4.42 µM | – | – | – | – | – | – | – | – | –
COc1ccc(C2c3cc4c(cc3OC(NCCO)C2C)OCO4)cc1 (centres undefined) | 48.8 µM | 52.4 µM | 75.2 µM | 66.1 µM | > 100 µM | > 100 µM | 76.8 µM | 55.3 µM | 84.6 µM | – | – | – | – | – | – | – | – | –
c1ccc([P+](CCCCCCCC[P+](c2ccccc2)(c2ccccc2)c2ccccc2)(c2ccccc2)c2ccccc2)cc1 | > 86.4 µM | > 100 µM | > 100 µM | > 73.7 µM | > 100 µM | > 91.1 µM | > 100 µM | 23.8 µM | > 100 µM | – | – | – | – | – | – | – | – | –
CCOC(=O)C1CCC(=O)N1C(=O)c1ccccc1Cl (centres undefined) | > 100 µM | > 100 µM | > 100 µM | > 100 µM | > 100 µM | > 100 µM | > 100 µM | > 100 µM | > 100 µM | – | – | – | – | – | – | – | – | –
CN1CCN(C2=C(Cl)C3(OCCS3)C(F)(F)C2(F)F)CC1 (centres undefined) | > 100 µM | > 100 µM | > 100 µM | > 100 µM | > 100 µM | > 100 µM | > 100 µM | > 100 µM | > 100 µM | – | – | – | – | – | – | – | – | –
C[n+]1c(/C=C/c2ccc(O)c3ncccc23)[se]c2ccccc21 | 30.5 µM | 4.22 µM | 37.8 µM | 10.9 µM | 19.1 µM | 40.4 µM | 18.3 µM | 40.5 µM | 17.8 µM | – | – | – | – | – | – | – | – | –
O=S1(=O)c2cnccc2NC(=NCc2ccccc2)N1c1ccccc1 | > 100 µM | > 100 µM | > 100 µM | > 100 µM | > 100 µM | > 100 µM | > 100 µM | 58.8 µM | > 100 µM | – | – | – | – | – | – | – | – | –
O=C(/C=C/c1ccc2c(c1)OCO2)Cc1nc2ccccc2[nH]c1=O | 65.7 µM | > 100 µM | 33.6 µM | 34.2 µM | 35.2 µM | > 100 µM | 50.9 µM | > 100 µM | > 100 µM | – | – | – | – | – | – | – | – | –
CC(=O)n1nc(-c2ccccc2)n(/N=C/c2ccc([N+](=O)[O-])o2)c1=O | 45 µM | 6.55 µM | 10.4 µM | 25.5 µM | 19.6 µM | 10.2 µM | 4.17 µM | 28.2 µM | 4.08 µM | – | – | – | – | – | – | – | – | –
